Patent US20090191253A2 (Creabilis Therapeutics S.P.A., priority 2005, published 2009)

How the values were obtained:
AXL = target: T1, AXL (Homo sapiens, UniProt P30530); assay: Kinase inhibition profiling AXL (ELISA); assay type: biochemical
T1 construct: made in house; host or cells: baculovirus expression system
Procedure: (§1) In particular, the target kinases were Tyrosine kinases and Serine/Threonine kinases.
(§2) Each test compound was weighed and dissolved in DMSO to make 1 mM stock solution. The stock solution was diluted with DMSO to achieve 20 μM. The compound solution was diluted with the assay buffer to achieve 0.8 μM.

CSK = target: T2, CSK (Homo sapiens, UniProt P41240); assay: Kinase inhibition profiling CSK (ELISA); assay type: biochemical
T2 construct: His (N, cleaved yes); made in house; host or cells: baculovirus expression system
Procedure: as §2

HER4 = target: T3, HER4 (Homo sapiens, UniProt Q15303); assay: Kinase inhibition profiling HER4 (ELISA); assay type: biochemical
T3 construct: Cytoplasmic domain of human HER4 [676-1308 amino; made in house; host or cells: baculovirus expression system
Procedure: as §2

EphB2 = target: T4, EphB2 (Homo sapiens, UniProt P29323); assay: Kinase inhibition profiling EphB2 (ELISA); assay type: biochemical
T4 construct: Cytoplasmic domain of human EphB2 [581-987 amino; made in house; host or cells: baculovirus expression system
Procedure: as §2

FGFR2 = target: T5, FGFR2 (Homo sapiens, UniProt P21802); assay: Kinase inhibition profiling FGFR2 (ELISA); assay type: biochemical; also: ATP 20 µM
T5 construct: Cytoplasmic domain of human FGFR2 [399-821 amino; made in house; host or cells: baculovirus expression system
T5 sequence (P21802 399-821): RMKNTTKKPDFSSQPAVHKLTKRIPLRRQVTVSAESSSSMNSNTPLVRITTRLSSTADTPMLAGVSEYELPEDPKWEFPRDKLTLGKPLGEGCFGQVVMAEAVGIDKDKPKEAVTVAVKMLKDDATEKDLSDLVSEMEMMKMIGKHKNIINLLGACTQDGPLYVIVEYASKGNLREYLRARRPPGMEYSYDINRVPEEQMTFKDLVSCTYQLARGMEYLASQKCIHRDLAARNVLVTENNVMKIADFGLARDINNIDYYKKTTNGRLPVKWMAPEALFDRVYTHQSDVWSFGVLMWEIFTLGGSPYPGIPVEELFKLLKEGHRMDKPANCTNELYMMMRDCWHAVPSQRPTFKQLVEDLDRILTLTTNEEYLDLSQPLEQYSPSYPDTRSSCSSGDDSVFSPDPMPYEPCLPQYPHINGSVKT
Procedure: as §2

INSR = target: T6, INSR (Homo sapiens, UniProt P06213); assay: Kinase inhibition profiling INSR (ELISA); assay type: biochemical
T6 construct: Kinase domain (KD) of human INSR [1005-1310 amino; His (N, cleaved yes); made in house; host or cells: baculovirus expression system
T6 sequence (P06213 1005-1310): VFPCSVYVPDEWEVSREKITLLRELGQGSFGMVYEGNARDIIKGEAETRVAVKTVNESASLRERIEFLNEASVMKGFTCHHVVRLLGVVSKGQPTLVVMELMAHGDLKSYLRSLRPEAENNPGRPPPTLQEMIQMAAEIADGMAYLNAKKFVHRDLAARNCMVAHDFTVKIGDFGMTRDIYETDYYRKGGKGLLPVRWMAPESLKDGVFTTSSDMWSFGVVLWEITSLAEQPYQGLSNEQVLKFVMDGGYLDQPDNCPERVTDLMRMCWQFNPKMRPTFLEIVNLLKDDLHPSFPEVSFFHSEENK
Procedure: as §2

JAK3 = target: T7, JAK3 (Homo sapiens, UniProt P52333); assay: Kinase inhibition profiling JAK3 (ELISA); assay type: biochemical; also: ATP 5 µM
T7 construct: Kinase domain (KD) of human JAK3 [795-1124 amino; made in house; host or cells: baculovirus expression system
T7 sequence (P52333 795-1124): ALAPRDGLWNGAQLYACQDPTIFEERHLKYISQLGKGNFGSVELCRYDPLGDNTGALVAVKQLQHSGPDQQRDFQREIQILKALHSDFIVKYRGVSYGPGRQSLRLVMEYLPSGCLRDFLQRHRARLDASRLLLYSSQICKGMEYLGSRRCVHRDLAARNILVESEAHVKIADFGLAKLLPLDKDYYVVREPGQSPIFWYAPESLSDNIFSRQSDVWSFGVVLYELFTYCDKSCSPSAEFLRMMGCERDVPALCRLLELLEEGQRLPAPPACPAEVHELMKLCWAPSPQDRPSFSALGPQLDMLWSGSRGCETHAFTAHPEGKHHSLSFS
Procedure: as §2

RON = target: T8, RON (Homo sapiens, UniProt Q04912); assay: Kinase inhibition profiling RON (ELISA); assay type: biochemical
T8 construct: Cytoplasmic domain of human RON [979-1400 amino; made in house; host or cells: baculovirus expression system
T8 sequence (Q04912 979-1400): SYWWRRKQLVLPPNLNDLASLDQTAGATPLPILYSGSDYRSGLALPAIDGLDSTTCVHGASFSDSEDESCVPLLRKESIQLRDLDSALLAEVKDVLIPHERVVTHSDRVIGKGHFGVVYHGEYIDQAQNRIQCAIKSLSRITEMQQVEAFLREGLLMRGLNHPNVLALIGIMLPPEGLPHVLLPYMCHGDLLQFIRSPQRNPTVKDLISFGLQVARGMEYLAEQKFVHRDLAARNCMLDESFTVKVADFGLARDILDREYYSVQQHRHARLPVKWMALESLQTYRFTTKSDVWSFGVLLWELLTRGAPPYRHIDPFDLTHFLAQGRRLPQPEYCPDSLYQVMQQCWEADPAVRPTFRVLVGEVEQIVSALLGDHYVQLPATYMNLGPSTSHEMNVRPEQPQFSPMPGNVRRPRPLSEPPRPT
Procedure: as §2

FLT3 = target: T9, FLT3 (Homo sapiens, UniProt P36888); assay: Kinase inhibition profiling FLT3 (ELISA); assay type: biochemical
T9 construct: made in house; host or cells: baculovirus expression system
T9 sequence (P36888 564-993): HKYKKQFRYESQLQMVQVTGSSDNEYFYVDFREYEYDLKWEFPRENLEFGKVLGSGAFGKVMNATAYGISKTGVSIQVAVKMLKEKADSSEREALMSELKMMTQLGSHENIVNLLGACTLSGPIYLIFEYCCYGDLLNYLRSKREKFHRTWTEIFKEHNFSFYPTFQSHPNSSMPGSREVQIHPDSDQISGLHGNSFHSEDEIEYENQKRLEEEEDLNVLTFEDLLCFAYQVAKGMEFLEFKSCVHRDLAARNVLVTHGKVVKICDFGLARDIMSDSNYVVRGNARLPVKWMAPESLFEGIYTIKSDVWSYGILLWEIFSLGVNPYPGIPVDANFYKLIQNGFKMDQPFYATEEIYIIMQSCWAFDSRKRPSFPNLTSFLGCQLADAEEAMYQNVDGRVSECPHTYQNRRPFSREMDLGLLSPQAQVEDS
Procedure: as §2

FMS(CSFR) = target: T10, FMS(CSFR) (Homo sapiens, UniProt P07333); assay: Kinase inhibition profiling FMS(CSFR) (ELISA); assay type: biochemical
T10 construct: Cytoplasmic domain of human FMS [538-972 amino; made in house; host or cells: baculovirus expression system
Procedure: as §2

RET = target: T11, RET (Homo sapiens, UniProt P07949); assay: Kinase inhibition profiling RET (ELISA); assay type: biochemical; also: ATP 5 µM
T11 construct: Cytoplasmic domain of human RET [658-1114 amino acids; made in house; host or cells: baculovirus expression system
Procedure: as §2

BLK = target: T12, BLK (Homo sapiens, UniProt P51451); assay: Kinase inhibition profiling BLK (ELISA); assay type: biochemical
T12 construct: made in house; host or cells: baculovirus expression system
Procedure: as §2

BRK = target: T13, BRK (Homo sapiens, UniProt Q13882); assay: Kinase inhibition profiling BRK (ELISA); assay type: biochemical
T13 construct: made in house; host or cells: baculovirus expression system
Procedure: as §1, §2

LCK = target: T14, LCK (Homo sapiens, UniProt P06239); assay: Kinase inhibition profiling LCK (ELISA); assay type: biochemical
T14 construct: made in house; host or cells: baculovirus expression system
Procedure: as §1, §2

LYNb = target: T15, LYNb (Homo sapiens, UniProt P07948); assay: Kinase inhibition profiling LYNb (ELISA); assay type: biochemical
T15 construct: made in house; host or cells: baculovirus expression system
T15 sequence (P07948 1-491 isoform P07948-2): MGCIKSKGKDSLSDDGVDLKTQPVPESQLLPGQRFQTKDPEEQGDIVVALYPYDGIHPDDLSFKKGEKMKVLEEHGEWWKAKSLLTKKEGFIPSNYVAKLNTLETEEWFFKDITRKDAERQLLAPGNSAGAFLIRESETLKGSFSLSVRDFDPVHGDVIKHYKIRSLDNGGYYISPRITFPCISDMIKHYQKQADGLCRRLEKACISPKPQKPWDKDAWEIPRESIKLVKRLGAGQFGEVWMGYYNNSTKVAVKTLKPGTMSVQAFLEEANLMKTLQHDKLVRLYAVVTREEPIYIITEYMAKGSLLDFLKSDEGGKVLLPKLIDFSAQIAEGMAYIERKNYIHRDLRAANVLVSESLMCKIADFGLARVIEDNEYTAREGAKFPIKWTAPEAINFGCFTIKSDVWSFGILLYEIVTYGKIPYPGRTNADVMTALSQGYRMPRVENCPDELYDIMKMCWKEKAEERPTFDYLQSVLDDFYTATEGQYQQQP
Procedure: as §2

SRC = target: T16, SRC (Homo sapiens, UniProt P12931); assay: Kinase inhibition profiling SRC (ELISA); assay type: biochemical
T16 construct: made in house; host or cells: baculovirus expression system
T16 sequence (P12931 whole entry): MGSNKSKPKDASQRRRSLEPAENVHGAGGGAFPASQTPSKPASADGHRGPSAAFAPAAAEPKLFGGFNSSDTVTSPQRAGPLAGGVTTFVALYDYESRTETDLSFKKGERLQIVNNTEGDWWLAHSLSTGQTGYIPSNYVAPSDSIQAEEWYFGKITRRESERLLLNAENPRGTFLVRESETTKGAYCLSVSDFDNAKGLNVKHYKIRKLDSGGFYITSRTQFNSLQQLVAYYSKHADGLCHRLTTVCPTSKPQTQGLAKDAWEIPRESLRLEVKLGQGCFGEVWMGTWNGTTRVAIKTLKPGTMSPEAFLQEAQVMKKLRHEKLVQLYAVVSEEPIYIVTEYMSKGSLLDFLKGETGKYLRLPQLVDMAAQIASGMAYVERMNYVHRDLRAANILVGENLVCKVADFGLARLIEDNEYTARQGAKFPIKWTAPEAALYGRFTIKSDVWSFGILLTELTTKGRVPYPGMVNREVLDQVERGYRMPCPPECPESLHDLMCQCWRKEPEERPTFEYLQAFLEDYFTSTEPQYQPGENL
Procedure: as §2

TrkB = target: T17, TrkB (Homo sapiens, UniProt Q16620); assay: Kinase inhibition profiling TrkB (ELISA); assay type: biochemical
T17 construct: Cytoplasmic domain of human TRKB [456-822 amino; made in house; host or cells: baculovirus expression system
T17 sequence (Q16620 456-822): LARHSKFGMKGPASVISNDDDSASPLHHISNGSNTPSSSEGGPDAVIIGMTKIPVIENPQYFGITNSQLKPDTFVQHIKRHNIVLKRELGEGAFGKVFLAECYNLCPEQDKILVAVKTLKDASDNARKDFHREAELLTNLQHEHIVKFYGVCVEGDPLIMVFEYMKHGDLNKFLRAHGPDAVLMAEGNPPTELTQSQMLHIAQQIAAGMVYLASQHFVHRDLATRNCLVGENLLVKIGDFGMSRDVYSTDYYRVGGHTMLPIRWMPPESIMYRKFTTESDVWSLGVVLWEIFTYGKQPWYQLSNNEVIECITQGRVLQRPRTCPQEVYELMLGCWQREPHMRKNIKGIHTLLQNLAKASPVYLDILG
Procedure: as §1, §2

FLT1 = target: T18, FLT1 (Homo sapiens, UniProt P17948); assay: Kinase inhibition profiling FLT1 (ELISA); assay type: biochemical; also: ATP 20 µM
T18 construct: Cytoplasmic domain of human FLT1 [781-1338 amino; made in house; host or cells: baculovirus expression system
T18 sequence (P17948 781-1338): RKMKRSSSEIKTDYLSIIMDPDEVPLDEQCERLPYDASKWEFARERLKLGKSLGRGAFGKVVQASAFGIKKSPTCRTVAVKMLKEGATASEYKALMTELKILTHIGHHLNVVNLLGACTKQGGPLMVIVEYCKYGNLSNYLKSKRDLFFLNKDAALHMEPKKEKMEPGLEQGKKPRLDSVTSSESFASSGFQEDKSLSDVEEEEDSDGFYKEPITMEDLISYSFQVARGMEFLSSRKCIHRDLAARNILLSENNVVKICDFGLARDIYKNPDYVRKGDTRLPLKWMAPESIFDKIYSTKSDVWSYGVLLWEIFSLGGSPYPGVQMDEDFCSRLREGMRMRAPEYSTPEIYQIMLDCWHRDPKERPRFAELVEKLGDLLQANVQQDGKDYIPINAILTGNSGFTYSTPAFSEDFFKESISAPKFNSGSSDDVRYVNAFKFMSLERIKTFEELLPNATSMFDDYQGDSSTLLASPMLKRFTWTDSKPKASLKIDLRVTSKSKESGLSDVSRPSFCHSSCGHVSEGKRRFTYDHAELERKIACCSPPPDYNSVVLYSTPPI
Procedure: as §1, §2

PKACα = target: T19, PKACα (Homo sapiens, UniProt P17612); assay: Kinase inhibition profiling PKACα (IMAP); assay type: biochemical
T19 construct: made in house; host or cells: baculovirus expression system
Procedure: as §1, §2

CHK1 = target: T20, CHK1 (Homo sapiens, UniProt O14757); assay: Kinase inhibition profiling CHK1 (IMAP); assay type: biochemical
T20 construct: His (N); made in house; host or cells: baculovirus expression system
Procedure: as §2

CDK2/cyclinA = target: T21, CDK2/cyclinA (Homo sapiens, UniProt P24941); assay: Kinase inhibition profiling CDK2/cyclinA (IMAP); assay type: biochemical
T21 construct: His (N); made in house; host or cells: baculovirus expression system
Procedure: as §2

p38α = target: T22, p38α (Homo sapiens, UniProt Q16539); assay: Kinase inhibition profiling p38α (IMAP); assay type: biochemical
T22 construct: GST (N); made in house; host or cells: E. coli
Procedure: as §2

p38β = assay: Kinase inhibition profiling p38β (IMAP); assay type: biochemical, human; details: K-252a 200 nM, ATP 10 μM
Procedure: as §2

IKKβ = target: T23, IKKβ (Homo sapiens, UniProt O14920); assay: Kinase inhibition profiling IKKβ (IMAP); assay type: biochemical
T23 construct: Human IKKβ with 662 amino acids were expressed; His (N); made in house; host or cells: insect cells
T23 sequence (O14920 1-662 limits assumed): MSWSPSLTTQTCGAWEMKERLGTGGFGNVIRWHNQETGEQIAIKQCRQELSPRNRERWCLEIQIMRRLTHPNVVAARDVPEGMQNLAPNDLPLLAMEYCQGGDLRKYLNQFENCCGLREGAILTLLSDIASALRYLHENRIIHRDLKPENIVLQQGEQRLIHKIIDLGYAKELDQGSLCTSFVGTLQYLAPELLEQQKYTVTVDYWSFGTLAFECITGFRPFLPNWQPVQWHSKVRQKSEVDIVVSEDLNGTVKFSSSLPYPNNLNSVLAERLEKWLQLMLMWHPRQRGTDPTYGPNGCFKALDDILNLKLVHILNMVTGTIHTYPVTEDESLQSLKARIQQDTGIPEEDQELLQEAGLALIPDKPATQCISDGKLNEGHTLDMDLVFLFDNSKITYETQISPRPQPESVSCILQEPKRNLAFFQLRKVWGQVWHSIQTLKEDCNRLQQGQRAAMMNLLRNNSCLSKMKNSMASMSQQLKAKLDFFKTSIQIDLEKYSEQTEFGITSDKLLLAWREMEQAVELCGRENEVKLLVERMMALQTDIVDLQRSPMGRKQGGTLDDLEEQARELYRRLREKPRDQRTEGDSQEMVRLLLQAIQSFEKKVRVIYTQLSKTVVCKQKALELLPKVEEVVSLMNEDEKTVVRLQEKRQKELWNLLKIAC
Procedure: as §2

[1] = system: bovine aorta smooth muscle cells (BASMC); assay: Chemotaxis assay, HMGB1-induced migration (modified Boyden chambers); assay type: cell-based; details: K-252a 3, 10, 30, 100 nM; HMGB-1 25 ng/ml; overnight migration
Procedure: Chemotaxis assays were performed using a well known and validated protocol (1). Modified Boyden chambers were used with filters having 5-8 μm pore size and treated with collagen I (100 μg/ml in 0.5 M acetic acid) and fibronectin (10 μg/ml, Roche). BASMC (bovine aorta smooth muscle cells) were cultured in serum-free DMEM and a sample of 20,000-40,000 cells was added to the upper well of a Boyden chamber. […] Overnight cell migration was allowed at 37+/−0.5° C., then cells were scraped off and filters were fixed in methanol and stained in a solution of 10% crystal violet in 20% methanol. All experiments were performed at least twice in triplicate. […] Random cell migration, i.e. migration in the absence of chemoattractant, was given the arbitrary value of 100%. Statistical analysis was performed using Student's t test for pairwise comparisons of treatment, or an ANOVA model for the evaluation of treatments with increasing concentrations of a reagent.

HMGB1 = target: T24, HMGB1 (Homo sapiens, UniProt P09429); assay: Fluorescence assays of K-252a/HMGB1 interaction; assay type: binding
T24 construct: host or cells: bacteria (inferred from the mention of bacterial contaminants)

TrkC = TrkC (Homo sapiens, UniProt Q16288); assay: Kinase inhibition profiling TrkC (ELISA)
Procedure: as §1, §2

T1 sequence (P30530 473-894 limits assumed): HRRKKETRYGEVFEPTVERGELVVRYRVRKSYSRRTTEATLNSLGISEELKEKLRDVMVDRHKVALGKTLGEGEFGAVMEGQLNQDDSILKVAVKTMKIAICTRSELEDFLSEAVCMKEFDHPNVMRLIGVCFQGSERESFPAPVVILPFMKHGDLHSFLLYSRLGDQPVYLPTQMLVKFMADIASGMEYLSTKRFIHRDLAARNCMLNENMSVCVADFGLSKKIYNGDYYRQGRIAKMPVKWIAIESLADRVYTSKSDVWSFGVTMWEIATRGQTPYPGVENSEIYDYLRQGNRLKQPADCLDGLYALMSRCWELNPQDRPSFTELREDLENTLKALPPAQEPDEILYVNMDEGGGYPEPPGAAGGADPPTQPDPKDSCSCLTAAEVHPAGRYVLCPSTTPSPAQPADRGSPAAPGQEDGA

COC(=O)[C@]1(O)CC2O[C@@]1(C)n1c3ccccc3c3c4c(c5c6ccccc6n2c5c31)C(=O)NC4 [K-252a]
inhibition at 0.2 µM (AXL): 51.5%
inhibition at 0.2 µM (CSK): 43%
inhibition at 0.2 µM (HER4): 39.4%
inhibition at 0.2 µM (EphB2): 0.4%
inhibition at 0.2 µM (FGFR2): 67.2%
inhibition at 0.2 µM (INSR): 38%
inhibition at 0.2 µM (JAK3): 100%
inhibition at 0.2 µM (RON): 5.2%
inhibition at 0.2 µM (FLT3): 95.8%
inhibition at 0.2 µM (FMS(CSFR)): 55.7%
inhibition at 0.2 µM (RET): 94.2%
inhibition at 0.2 µM (BLK): 83.5%
inhibition at 0.2 µM (BRK): 35.8%
inhibition at 0.2 µM (LCK): 65.2%
inhibition at 0.2 µM (LYNb): 51.2%
inhibition at 0.2 µM (SRC): 20.6%
inhibition at 0.2 µM (TrkB): 98.2%
inhibition at 0.2 µM (FLT1): 73.9%
inhibition at 0.2 µM (PKACα): 69.4%
inhibition at 0.2 µM (CHK1): 92.8%
inhibition at 0.2 µM (CDK2/cyclinA): 75.5%
inhibition at 0.2 µM (p38α): -1.5%
% Inhibition (p38β): −0.2%
inhibition at 0.2 µM (IKKβ): 2.7%
HMGB1-induced BASMC cell migration [1]: actively and concentration-dependently (in a nanomolar range) antagonizes HMGB1-induced BASMC cell migration
direct interaction between K-252a and HMGB1 (HMGB1): absence of a direct interaction
inhibition at 0.2 µM (TrkC): 94.4%
